Test results reported in PMC11653243, “Enhancing Phototoxicity in BODIPY‐Perylene Charge Transfer Dyads by Combined Iodination and Mesylation” (Chemistry (Weinheim an Der Bergstrasse, Germany), 2024).

Key:
CHO cells [1] = assay: Dark toxicity, 24 h, alamar blue assay; format: cell-based, Chinese Hamster; settings: Cricetulus griseus, light or radiation study, without irradiation, 24 h in the dark at 37 °C
Protocol: Typical of many BODIPY derivatives, the BODIPY's presented in this work are insoluble in aqueous media, including PBS, and thus the main stock solutions (2–3 mM) were prepared in 100 % DMSO and diluted in media immediately before treating the cells. The maximum concentration for dark toxicity was set at 50 μM to keep the concentration of DMSO ≤1 % (v/v) to maintain cell health. As a result, it was not possible to determine an exact dark IC50 value as concentrations above 50 μM demanded DMSO concentrations that would affect the viability of the cells. Dietzek‐Ivanšić et al previously reported on the effect of DMSO on MCF‐7 cell viability, where cell viability remained high (95 %) in cells treated with 1 % DMSO in cell culture media for 24 h, whereas only 40 % of cells remained viable after treatment with 3.8 % DMSO. Working stocks in cell culture media remained stable within the incubation times used for cellular studies i. e. up to 24 h.[25]
(§1) Dark‐ and photo‐toxicity studies were performed by seeding CHO and MCF‐7 cells in clear 96‐well plates (Nunc) and treating with varying concentrations of B2P, MB2P, B2PI and MB2PI. Phototoxicity experiments were carried out using a 470 nm LED. For hypoxic phototoxicity studies, hypoxia was mimicked by adding CoCl2 to the cells prior to irradiation. Cell viability was determined using the alamar blue assay and absorbance measured with a BMG LABTECH CLARIOstar plate reader. […]
For 24 h dark toxicity studies, 50, 10, 5 and 1 µM stock concentrations of B2P, B2PI, MB2P and MB2PI were prepared in media to a final DMSO concentration of ≤1%. 100 µL of each concentration was added to the wells in triplicate and the plates incubated for 24 h in the dark at 37°C. Cell viability of all plate-based studies was assessed using the alamar blue assay. A 10% Resazurin-media solution (alamarBlue, Invitrogen) was added to the wells and incubated for 5 h in the absence of light. Absorbance was measured using a BMG LABTECH CLARIOstar plate reader at 570 nm and 600 nm (corrected for background subtraction). Cell viability is presented as a percentage (%) compared to untreated control wells. Plates were performed in triplicate. […]

CHO cells [2] = assay: Phototoxicity, 470 nm LED, alamar blue assay; format: cell-based, Chinese Hamster; settings: 17 J/cm^2, 470 nm LED
Protocol: The phototoxicity of the BODIPY's were assessed to compare the light induced toxicity of the iodinated compounds with their non‐iodinated counterparts. CHO and MCF‐7 cells were treated with B2P, B2PI, MB2P, and MB2PI in a concentration range from 0.10–1 μM for 17 h, the wells were decanted and filled with 100 μL phenol red free media prior to irradiation with a 470 nm LED (17 J/cm^2). Cell viability was determined using the alamar blue cell viability assay and % viability was calculated relative to untreated control wells.
as §1
For 24 h dark toxicity studies, 50, 10, 5 and 1 µM stock concentrations of B2P, B2PI, MB2P and MB2PI were prepared in media to a final DMSO concentration of ≤1%. 100 µL of each concentration was added to the wells in triplicate and the plates incubated for 24 h in the dark at 37°C. Cell viability of all plate-based studies was assessed using the alamar blue assay. A 10% Resazurin-media solution (alamarBlue, Invitrogen) was added to the wells and incubated for 5 h in the absence of light. Absorbance was measured using a BMG LABTECH CLARIOstar plate reader at 570 nm and 600 nm (corrected for background subtraction). Cell viability is presented as a percentage (%) compared to untreated control wells. Plates were performed in triplicate.
Phototoxicity and dark control plates were performed by incubating CHO or MCF-7 cells with B2P, B2PI, MB2P and MB2PI for 17 h to allow uptake, emptying the wells, replacing with phenol red free media, and irradiating at a total dose of 17 ± 1.64 J/cm2 (2 h at 2.37 ± 0.23 mW/cm2) using a 470 nm LED (TeleOpto LEDA-X LED driver and array). Control plates were incubated in the dark during the irradiation period (2 h). After irradiation, the cells were incubated in the dark overnight to allow for cell recovery. Irradiation conditions were tested on untreated cells to confirm cells remained viable at this dose before any experiments were performed and each phototoxicity plate included untreated test wells for cell viability comparison. Viability was determined using the alamar blue assay as per the cytotoxicity

MCF‐7 spheroids = assay: Spheroid dark toxicity, CellTiter-Glo 3D; format: cell-based; settings: Homo sapiens, MCF7, light or radiation study; MCF‐7 3D (spheroids); without irradiation
Protocol: 3D Cell Studies: Toxicity Assays
Spheroids were seeded in a clear BIOFLOAT™ round bottom 96 well plate (Sarstedt) at 2x10^4 cells per well, centrifuged using the […] for 5 minutes at 700 rpm and allowed to grow and compact for 96 hours. A 2X concentrated solution of B2P, B2PI, MB2P or MB2PI was added in a 1:1 ratio (BODIPY:media) to each well of the 96 well plate, which contained 50 µL phenol red free media, and incubated for 24 h. Prior to irradiation 90% of the media/Ru solution was removed, replaced with fresh phenol red media to dilute the remaining BODIPY (multiple dilution steps, more required for 15 µM and above), and brought to a total volume of 100 µL. Phototoxicity studies in […] spheroids were performed as per the cell monolayer protocol with an irradiation dose of 5 J/cm2 using a 470 nm LED.
Control studies with untreated spheroids confirmed 17 J/cm2 irradiation dose was toxic to spheroids, however the spheroids remained viable after 5 J/cm2 irradiation. CellTiter-Glo 3D cell viability assay (Promega) was used to assess spheroid viability and performed as per the manufacturer’s protocol, where the CellTiter-Glo 3D reagent was added to the spheroid wells

Compound	IC50 (CHO cells [1])	Photo Index (PI), ratio of dark IC50 to light IC50 (CHO cells [2])	IC50 (MCF‐7 spheroids)
CC1=CC(C)=[N+]2C1=C(c1ccccc1)c1c(C)c(-c3ccc4c5cccc6cccc(c7cccc3c74)c65)c(C)n1[B-]2(F)F [B2P]	> 50 µM	> 76	46 ± 2.38 µM
CC1=C(I)C(C)=[N+]2C1=C(c1ccccc1)c1c(C)c(-c3ccc4c5cccc6cccc(c7cccc3c74)c65)c(C)n1[B-]2(F)F [B2PI]	> 50 µM	> 87	44 ± 3.84 µM
CC1=C(c2ccc3c4cccc5cccc(c6cccc2c63)c54)C(C)=[N+]2C1=C(c1c(C)cc(C)cc1C)c1c(C)cc(C)n1[B-]2(F)F [MB2P]	> 50 µM	> 64	> 50 µM
CC1=C(c2ccc3c4cccc5cccc(c6cccc2c63)c54)C(C)=[N+]2C1=C(c1c(C)cc(C)cc1C)c1c(C)c(I)c(C)n1[B-]2(F)F [MB2PI]	> 50 µM	> 132	> 50 µM
